Data reported in patent US8642736B2, “Casein complexes” (DSM IP Assets B. V., priority 2006, dated 2014).

Legend:
[1] = Storage stability: resveratrol in supernatant of aqueous dispersions (UV method); assay type: physicochemical
Description: Resveratrol-caseinate complex used was the oven-dried material described in Example 8 (non-dispersible material was not removed by centrifugation). Crystalline resveratrol was included for comparison.
Complexed and crystalline resveratrol was dispersed in deionized water of pH 6.8 or 3.0 to give a final target dispersion concentration of 60 and 80 ppm. The desired pH was achieved by pH adjustment using dilute HCl or NaHCO3 The samples were heated in a water bath till 80° C. and then held at 80° C. for 1 minute. The samples were stored in the dark at 25° C. and 5° C. During storage, resveratrol recrystallized and precipitated in some samples. The resveratrol concentration in the supernatant were determined by a UV method and the results are shown below, […]

[2] = Dispersion stability of 10% dispersion: resveratrol content, upper part vs after mixing; assay type: physicochemical; conditions: aqueous dispersion; likely much less using similar dispersion conditions
Description: The powder (2.5 g) was dispersed in deionized water (47.5 g) with stirring. The dispersion was centrifuged at 3000 rpm for 5 minutes (Sigma Centrifuge 6-10, Sigma Laborzentrifugen GmbH, Germany) to remove the un-dispersible material. The supernatant was lyophilized to yield 1.7 g powder. The powder (1 g) was suspended in deionized water (9 g) to give a 10% homogenous dispersion. A sample of the dispersion was placed in a test tube and stored at room temperature for 3 hours and then at 5° C. for 1 day. A small sample was taken from the upper part of the test tube and then a sample was taken after mixing. […] The results indicated the dispersion stability. The highly concentrate dispersion can be conveniently used for various applications in pharmaceuticals and cosmetics, food and feed, especially in beverages.
A dispersion of more than 0.005% (likely much less using similar dispersion conditions) of non-complexed resveratrol would result in precipitation of resveratrol.

[3] = target 60 ppm, pH 3.0, stored in the dark at 5 C.
[4] = target 60 ppm, pH 3.0, stored in the dark at 25 C.
[5] = target 60 ppm, pH 6.8, stored in the dark at 5 C.
[6] = target 60 ppm, pH 6.8, stored in the dark at 25 C.
[7] = target 80 ppm, pH 3.0, stored in the dark at 5 C.
[8] = target 80 ppm, pH 3.0, stored in the dark at 25 C.
[9] = target 80 ppm, pH 6.8, stored in the dark at 5 C.
[10] = target 80 ppm, pH 6.8, stored in the dark at 25 C.

Oc1ccc(C=Cc2cc(O)cc(O)c2)cc1 [Resveratrol, 3,4′,5-trihydroxystilbene]
Resveratrol in supernatant, Initial ([1]; target 60 ppm, pH 3.0, 5 C.): 58 ppm
Resveratrol in supernatant, Initial ([1]; target 60 ppm, pH 3.0, 25 C.): 58 ppm
Resveratrol in supernatant, 1 week [1, 3]: 28 ppm
Resveratrol in supernatant, 1 week (% in parentheses) [1, 3]: 48%
Resveratrol in supernatant, 2.4 week [1, 3]: 19 ppm
Resveratrol in supernatant, 2.4 week (% in parentheses) [1, 3]: 33%
Resveratrol in supernatant, 1 week [1, 4]: 43 ppm
Resveratrol in supernatant, 1 week (% in parentheses) [1, 4]: 74%
Resveratrol in supernatant, 2.4 week [1, 4]: 39 ppm
Resveratrol in supernatant, 2.4 week (% in parentheses) [1, 4]: 67%
Resveratrol in supernatant, Initial ([1]; target 60 ppm, pH 6.8, 5 C.): 60 ppm
Resveratrol in supernatant, Initial ([1]; target 60 ppm, pH 6.8, 25 C.): 60 ppm
Resveratrol in supernatant, 1 week [1, 5]: 23 ppm
Resveratrol in supernatant, 1 week (% in parentheses) [1, 5]: 38%
Resveratrol in supernatant, 2.4 week [1, 5]: 17 ppm
Resveratrol in supernatant, 2.4 week (% in parentheses) [1, 5]: 28%
Resveratrol in supernatant, 1 week [1, 6]: 45 ppm
Resveratrol in supernatant, 1 week (% in parentheses) [1, 6]: 75%
Resveratrol in supernatant, 2.4 week [1, 6]: 39 ppm
Resveratrol in supernatant, 2.4 week (% in parentheses) [1, 6]: 65%
Resveratrol in supernatant, Initial ([1]; target 80 ppm, pH 3.0, 5 C.): 80 ppm
Resveratrol in supernatant, Initial ([1]; target 80 ppm, pH 3.0, 25 C.): 80 ppm
Resveratrol in supernatant, 1 week [1, 7]: 28 ppm
Resveratrol in supernatant, 1 week (% in parentheses) [1, 7]: 35%
Resveratrol in supernatant, 2.4 week [1, 7]: 16 ppm
Resveratrol in supernatant, 2.4 week (% in parentheses) [1, 7]: 20%
Resveratrol in supernatant, 1 week [1, 8]: 47 ppm
Resveratrol in supernatant, 1 week (% in parentheses) [1, 8]: 59%
Resveratrol in supernatant, 2.4 week [1, 8]: 38 ppm
Resveratrol in supernatant, 2.4 week (% in parentheses) [1, 8]: 48%
Resveratrol in supernatant, Initial ([1]; target 80 ppm, pH 6.8, 5 C.): 79 ppm
Resveratrol in supernatant, Initial ([1]; target 80 ppm, pH 6.8, 25 C.): 79 ppm
Resveratrol in supernatant, 1 week [1, 9]: 24 ppm
Resveratrol in supernatant, 1 week (% in parentheses) [1, 9]: 30%
Resveratrol in supernatant, 2.4 week [1, 9]: 16 ppm
Resveratrol in supernatant, 2.4 week (% in parentheses) [1, 9]: 20%
Resveratrol in supernatant, 1 week [1, 10]: 45 ppm
Resveratrol in supernatant, 1 week (% in parentheses) [1, 10]: 57%
Resveratrol in supernatant, 2.4 week [1, 10]: 43 ppm
Resveratrol in supernatant, 2.4 week (% in parentheses) [1, 10]: 54%
dispersion concentration that would result in precipitation of resveratrol [2]: more than 0.005%
